Assay results taken from ChEMBL document CHEMBL4028852, “Design of a Chemical Probe for the Bromodomain and Plant Homeodomain Finger-Containing (BRPF) Family of Proteins” (J Med Chem, 2017).
pIC50, pKd: −log10 of the molar value.

Tests used:
[1] = target: Bromodomain-containing protein 4 (Homo sapiens, UniProt O60885); assay: Inhibition of human BRD4 bromodomain 1 (unknown origin) using [H-YSGRGKacGGKacGLGKacGGAKacRHRK(Biotin)-OH peptide as substrate after 30 mins by alphaScreen assay
[2] = target: T1, Bromodomain-containing protein 9 (Homo sapiens, UniProt Q9H8M2); assay: Binding affinity to BRD9 (unknown origin) by isothermal titration calorimetry
T1 sequence (Q9H8M2 whole entry): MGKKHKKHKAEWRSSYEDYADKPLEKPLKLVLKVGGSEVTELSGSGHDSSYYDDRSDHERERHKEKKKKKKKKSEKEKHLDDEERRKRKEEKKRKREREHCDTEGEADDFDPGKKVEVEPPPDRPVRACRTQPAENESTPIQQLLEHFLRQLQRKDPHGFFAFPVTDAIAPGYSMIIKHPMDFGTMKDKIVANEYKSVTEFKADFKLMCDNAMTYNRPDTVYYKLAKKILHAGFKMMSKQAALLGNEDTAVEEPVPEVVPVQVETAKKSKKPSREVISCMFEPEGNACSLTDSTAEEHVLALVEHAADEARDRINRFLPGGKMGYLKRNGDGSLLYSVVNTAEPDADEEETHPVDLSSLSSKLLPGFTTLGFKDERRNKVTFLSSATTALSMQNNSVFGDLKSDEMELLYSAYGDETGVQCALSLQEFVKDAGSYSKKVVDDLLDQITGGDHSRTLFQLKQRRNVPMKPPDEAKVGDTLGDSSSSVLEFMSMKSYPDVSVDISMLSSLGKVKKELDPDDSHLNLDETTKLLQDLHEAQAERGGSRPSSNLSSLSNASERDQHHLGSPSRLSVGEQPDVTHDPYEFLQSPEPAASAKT

Kv4.3/KChIP2 = target: T2, Kv4.3/KChIP2 (Homo sapiens, UniProt Q9NS61+Q9UK17); assay: Inhibition of Kv4.3/KChIP2 (unknown origin) at 30 uM; type: protein-complex assay
T2 sequence (Q9UK17 whole entry): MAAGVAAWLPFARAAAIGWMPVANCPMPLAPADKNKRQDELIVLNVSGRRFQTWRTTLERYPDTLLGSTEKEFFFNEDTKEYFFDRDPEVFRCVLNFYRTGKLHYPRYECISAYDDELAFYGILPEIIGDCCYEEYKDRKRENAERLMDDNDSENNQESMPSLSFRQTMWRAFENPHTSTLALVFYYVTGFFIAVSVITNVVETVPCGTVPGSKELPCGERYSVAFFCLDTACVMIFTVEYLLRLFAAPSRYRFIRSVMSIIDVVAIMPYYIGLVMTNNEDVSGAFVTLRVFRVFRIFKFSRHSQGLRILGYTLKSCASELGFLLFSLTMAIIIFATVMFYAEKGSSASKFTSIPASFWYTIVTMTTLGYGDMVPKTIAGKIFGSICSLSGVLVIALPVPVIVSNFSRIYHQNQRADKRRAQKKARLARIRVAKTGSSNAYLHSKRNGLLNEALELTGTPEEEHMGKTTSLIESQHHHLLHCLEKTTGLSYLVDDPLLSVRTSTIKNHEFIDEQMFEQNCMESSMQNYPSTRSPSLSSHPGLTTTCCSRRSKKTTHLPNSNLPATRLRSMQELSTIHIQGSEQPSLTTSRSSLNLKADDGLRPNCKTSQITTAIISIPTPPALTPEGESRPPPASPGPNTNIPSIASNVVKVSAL
T2 sequence (Q9NS61 whole entry): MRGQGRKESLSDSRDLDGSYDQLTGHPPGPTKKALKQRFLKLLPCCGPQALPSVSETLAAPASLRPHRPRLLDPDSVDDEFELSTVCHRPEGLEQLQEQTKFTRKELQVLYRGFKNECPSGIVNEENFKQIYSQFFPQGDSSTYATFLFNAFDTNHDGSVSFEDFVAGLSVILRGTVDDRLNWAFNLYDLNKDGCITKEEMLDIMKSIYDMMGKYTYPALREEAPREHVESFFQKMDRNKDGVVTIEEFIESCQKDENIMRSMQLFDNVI

hERG = hERG (Homo sapiens, UniProt Q12809); assay: Inhibition of human ERG at 30 uM
hERG, sequence (Q12809 whole entry): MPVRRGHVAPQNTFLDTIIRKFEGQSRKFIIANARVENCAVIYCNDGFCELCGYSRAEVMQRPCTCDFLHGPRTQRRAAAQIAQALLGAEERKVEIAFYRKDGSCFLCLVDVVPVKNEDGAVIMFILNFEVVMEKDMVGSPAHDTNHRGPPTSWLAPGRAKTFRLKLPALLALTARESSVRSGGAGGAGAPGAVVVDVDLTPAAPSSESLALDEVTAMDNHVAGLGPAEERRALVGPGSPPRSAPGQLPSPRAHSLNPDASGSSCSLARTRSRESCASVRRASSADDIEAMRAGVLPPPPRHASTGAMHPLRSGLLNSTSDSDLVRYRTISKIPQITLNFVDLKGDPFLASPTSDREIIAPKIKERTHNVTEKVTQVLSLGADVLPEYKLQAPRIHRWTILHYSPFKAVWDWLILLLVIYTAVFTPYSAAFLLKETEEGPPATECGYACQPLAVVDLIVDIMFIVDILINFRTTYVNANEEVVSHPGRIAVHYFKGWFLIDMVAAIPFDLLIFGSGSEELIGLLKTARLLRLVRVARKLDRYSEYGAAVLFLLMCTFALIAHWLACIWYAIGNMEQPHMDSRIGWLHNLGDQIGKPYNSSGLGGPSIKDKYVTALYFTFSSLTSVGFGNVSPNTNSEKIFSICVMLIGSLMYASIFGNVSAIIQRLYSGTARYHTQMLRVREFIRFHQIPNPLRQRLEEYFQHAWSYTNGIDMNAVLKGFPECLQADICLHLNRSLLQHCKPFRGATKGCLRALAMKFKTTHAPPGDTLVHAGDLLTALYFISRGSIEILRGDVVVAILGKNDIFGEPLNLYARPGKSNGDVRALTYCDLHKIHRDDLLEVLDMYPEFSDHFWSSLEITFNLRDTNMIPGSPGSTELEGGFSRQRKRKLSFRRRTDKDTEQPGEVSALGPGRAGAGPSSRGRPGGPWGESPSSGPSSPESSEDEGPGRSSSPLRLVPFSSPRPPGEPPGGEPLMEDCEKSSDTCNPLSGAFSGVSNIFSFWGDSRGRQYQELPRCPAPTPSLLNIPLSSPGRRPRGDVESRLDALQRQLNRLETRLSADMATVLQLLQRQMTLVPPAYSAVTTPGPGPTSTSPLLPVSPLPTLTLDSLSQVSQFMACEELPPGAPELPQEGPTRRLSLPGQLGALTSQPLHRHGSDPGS

COc1cc(C#N)ccc1S(=O)(=O)Nc1ccc2c(c1)cc(C)c(=O)n2C
pIC50 [1]: < 5.00
pKd [2]: 6.00
inhibition at 30 µM (Kv4.3/KChIP2): < 40%
inhibition at 30 µM (hERG): < 40%
